Data taken from ChEMBL document CHEMBL1147043, “Comparative metabolism of radiolabeled muraglitazar in animals and humans by quantitative and qualitative metabolite profiling” (Drug Metab Dispos, 2007).

What was measured:
[1] = system: Hepatocyte; assay: Metabolic stability in human hepatocytes assessed as hydroxyl muraglitazar glucuronide level by LC/MS analysis relative to control; format: ADME, cell-based
[2] = system: Plasma; assay: Biodistribution in orally dosed Sprague-Dawley rat plasma assessed as muraglitazar glucuronide level after 12 hrs by LC/MS analysis; format: ADME, organism-based; conditions: in vivo, po
[3] = system: Plasma; assay: Biodistribution in orally dosed Sprague-Dawley rat plasma assessed as O-Dealkyl muraglitazar level after 12 hrs by LC/MS analysis; format: ADME, organism-based; conditions: in vivo, po
[4] = system: Rattus norvegicus; assay: Biodistribution in orally dosed Sprague-Dawley rat feces assessed as 17-hydroxy muraglitazar level by LC/MS analysis; format: ADME, organism-based; conditions: in vivo, po, pooled result: one value given for 6 cell lines, strains, targets or settings
[5] = Biodistribution in orally dosed human feces assessed as 12-hydroxy muraglitazar level by LC/MS analysis; format: ADME, organism-based; conditions: in vivo, po
[6] = Metabolic stability in CD1 mouse hepatocytes assessed as 12-hydroxy muraglitazar level by LC/MS analysis relative to control; format: ADME, cell-based, Hepatocyte
[7] = Biodistribution in orally dosed human feces assessed as 9-hydroxy muraglitazar level by LC/MS analysis; format: ADME, organism-based; conditions: in vivo, po
[8] = system: Hepatocyte; assay: Metabolic stability in human hepatocytes assessed as muraglitazar 12-carboxylic acid level by LC/MS analysis relative to control; format: ADME, cell-based
[9] = Biodistribution in orally dosed cynomolgus monkey feces assessed as O-demethyl muraglitazar level by LC/MS analysis; format: ADME, organism-based, Macaca fascicularis; conditions: in vivo, po
[10] = system: Plasma; assay: Biodistribution in orally dosed cynomolgus monkey plasma assessed as muraglitazar 12-carboxylic acid level after 4 hrs by LC/MS analysis; format: ADME, organism-based, Macaca fascicularis; conditions: in vivo, po
[11] = system: Plasma; assay: Biodistribution in orally dosed cynomolgus monkey plasma assessed as muraglitazar glucuronide level after 12 hrs by LC/MS analysis; format: ADME, organism-based, Macaca fascicularis; conditions: in vivo, po
[12] = Biodistribution in orally dosed cynomolgus monkey feces assessed as 9-hydroxy-O-demethyl muraglitazar level by LC/MS analysis; format: ADME, organism-based, Macaca fascicularis; conditions: in vivo, po
[13] = system: Rattus norvegicus; assay: Biodistribution in orally dosed Sprague-Dawley rat urine assessed as 9-hydroxy muraglitazar level by LC/MS analysis; format: ADME, organism-based; conditions: in vivo, po
[14] = Drug concentration in bile duct-cannulated CD1 mouse urine assessed as recovery of radioactive dose at 40 mg/kg, po after 24 hrs; format: ADME, organism-based; set-up: dose 40 mg/kg, route oral; conditions: in vivo
[15] = system: Plasma; assay: Biodistribution in orally dosed Beagle dog plasma assessed as O-demethyl muraglitazar level after 12 hrs by LC/MS analysis; format: ADME, organism-based, Canis lupus familiaris; conditions: in vivo, po
[16] = system: Hepatocyte; assay: Metabolic stability in Sprague-Dawley rat hepatocytes assessed as 8-hydroxy muraglitazar level by LC/MS analysis relative to control; format: ADME, cell-based
[17] = Metabolic stability in CD1 mouse hepatocytes assessed as 12-hydroxy-O-demethyl muraglitazar level by LC/MS analysis relative to control; format: ADME, cell-based, Hepatocyte
[18] = Metabolic stability in CD1 mouse hepatocytes assessed as radioactivity recovaries at 25.6 ug/mL after 4 hrs; format: ADME, cell-based, Hepatocyte
[19] = system: Rattus norvegicus; assay: Biodistribution in orally dosed Sprague-Dawley rat feces assessed as 8-hydroxy muraglitazar level by LC/MS analysis; format: ADME, organism-based; conditions: in vivo, po
[20] = system: Plasma; assay: Biodistribution in orally dosed Sprague-Dawley rat plasma assessed as O-demethyl muraglitazar glucuronide level after 12 hrs by LC/MS analysis; format: ADME, organism-based; conditions: in vivo, po
[21] = system: Plasma; assay: Biodistribution in orally dosed human plasma assessed as 12-dihydroxy muraglitazar level after 12 hrs by LC/MS analysis; format: ADME, organism-based; conditions: in vivo, po
[22] = Biodistribution in orally dosed human urine assessed as O-dealkyl-O-demethyl muraglitazar level by LC/MS analysis; format: ADME, organism-based; conditions: in vivo, po
[23] = Fecal excretion of compound in orally dosed human within 48 hrs; format: ADME, organism-based; conditions: faeces, po, read-out: Activity
[24] = Biodistribution in orally dosed human urine assessed as 12-hydroxy muraglitazar level by LC/MS analysis; format: ADME, organism-based; conditions: in vivo, po
[25] = system: Hepatocyte; assay: Metabolic stability in human hepatocytes assessed as hydroxyl-O-demethyl muraglitazar glucuronide level by LC/MS analysis relative to control; format: ADME, cell-based
[26] = Drug concentration in bile duct-cannulated cynomolgus monkey bile assessed as recovery of radioactive dose at 5 mg/kg, po after 48 hrs; format: ADME, organism-based, Macaca fascicularis; set-up: dose 5 mg/kg, route oral; conditions: in vivo
[27] = system: Rattus norvegicus; assay: Biodistribution in orally dosed Sprague-Dawley rat urine assessed as 9-hydroxy-O-demethyl muraglitazar level by LC/MS analysis; format: ADME, organism-based; conditions: in vivo, po
[28] = system: Hepatocyte; assay: Metabolic stability in human hepatocytes assessed as 17-hydroxy muraglitazar level by LC/MS analysis relative to control; format: ADME, cell-based
[29] = Biodistribution in orally dosed Beagle dog feces assessed as O-dealkyl muraglitazar level by LC/MS analysis; format: ADME, organism-based, Canis lupus familiaris; conditions: in vivo, po
[30] = system: Rattus norvegicus; assay: Biodistribution in orally dosed Sprague-Dawley rat urine assessed as 8-hydroxy-O-demethyl muraglitazar level by LC/MS analysis; format: ADME, organism-based; conditions: in vivo, po
[31] = Drug concentration in human feces assessed as recovery of radioactive dose at 10 mg, po after 240 hrs; format: ADME, organism-based; conditions: in vivo
[32] = system: Plasma; assay: Biodistribution in orally dosed human plasma assessed as muraglitazar glucuronide level after 1 hr by LC/MS analysis; format: ADME, organism-based; conditions: in vivo, po
[33] = Metabolic stability in cynomolgus monkey hepatocytes assessed as radioactivity recovaries at 25.6 ug/mL after 4 hrs; format: ADME, cell-based, Macaca fascicularis, Hepatocyte
[34] = system: Plasma; assay: Biodistribution in orally dosed cynomolgus monkey plasma assessed as […] muraglitazar level after 4 hrs by LC/MS analysis; format: ADME, organism-based, Macaca fascicularis; conditions: in vivo, po
[35] = Biodistribution in orally dosed cynomolgus monkey urine assessed as O-demethyl muraglitazar level by LC/MS analysis; format: ADME, organism-based, Macaca fascicularis; conditions: in vivo, po
[36] = Metabolic stability in cynomolgus monkey hepatocytes assessed as 12,17-dihydroxy muraglitazar level by LC/MS analysis relative to control; format: ADME, cell-based, Macaca fascicularis, Hepatocyte
[37] = system: Plasma; assay: Biodistribution in orally dosed cynomolgus monkey plasma assessed as 17-dihydroxy muraglitazar level after 4 hrs by LC/MS analysis; format: ADME, organism-based, Macaca fascicularis; conditions: in vivo, po
[38] = Biodistribution in orally dosed Beagle dog feces assessed as 12-hydroxy-O-demethyl muraglitazar level by LC/MS analysis; format: ADME, organism-based, Canis lupus familiaris; conditions: in vivo, po
[39] = Metabolic stability in CD1 mouse hepatocytes assessed as O-demethyl muraglitazar glucuronide level by LC/MS analysis relative to control; format: ADME, cell-based, Hepatocyte
[40] = system: Hepatocyte; assay: Metabolic stability in Sprague-Dawley rat hepatocytes assessed as hydroxyl-O-demethyl muraglitazar glucuronide level by LC/MS analysis relative to control; format: ADME, cell-based
[41] = system: Rattus norvegicus; assay: Biodistribution in orally dosed Sprague-Dawley rat feces assessed as O-dealkyl muraglitazar level by LC/MS analysis; format: ADME, organism-based; conditions: in vivo, po
[42] = system: Rattus norvegicus; assay: Biodistribution in orally dosed Sprague-Dawley rat urine assessed as O-demethyl muraglitazar glucuronide level by LC/MS analysis; format: ADME, organism-based; conditions: in vivo, po
[43] = Biodistribution in orally dosed Beagle dog urine assessed as O-dealkyl muraglitazar level by LC/MS analysis; format: ADME, organism-based, Canis lupus familiaris; conditions: in vivo, po

`COc1ccc(OC(=O)N(CC(=O)O)Cc2ccc(OCCc3nc(-c4ccccc4)oc3C)cc2)cc1` [MURAGLITAZAR] gave a Drug uptake [1] of 0.2%, a Drug uptake [2] of 0.05% and a Drug uptake [3] of 0.05%. It also gave a Drug uptake [4] of 0.88%, a Drug uptake [5] of 8.2% and a Drug uptake [6] of 11%. The Drug uptake [7] was 1.6%, the Drug uptake [8] was 0.9% and the Drug uptake [9] was 7.24%. The Drug uptake [10] was under 0.05%, the Drug uptake [11] was 0.1% and the Drug uptake [12] was 0.32%. For the same compound, the Drug uptake [13] was under 0.01%, the Drug uptake [14] was 16.1% and the Drug uptake [15] was 9%. The Drug uptake [16] was under 0.2%, the Drug uptake [17] was 3% and the Stability [18] was 95.6%. The Drug uptake [19] was 4.39%, the Drug uptake [20] was 0.4% and the Drug uptake [21] was 1%. It also gave a Drug uptake [22] of 0.04%, a dose excreted at 48 h [23] of 25% and a Drug uptake [24] of 0.03%. The Drug uptake [25] was under 0.2%, the Drug uptake [26] was 35.7% and the Drug uptake [27] was 0.43%. For the same compound, the Drug uptake [28] was 4.4%, the Drug uptake [29] was 0.89% and the Drug uptake [30] was 0.05%. The Drug uptake [31] was 61.6%, the Drug uptake [32] was 2.5% and the Stability [33] was 99.2%. For the same compound, the Drug uptake [34] was 1.3%, the Drug uptake [35] was 0.08% and the Drug uptake [36] was under 0.2%. It also gave a Drug uptake [37] of 16.2%, a Drug uptake [38] of 0.38% and a Drug uptake [39] of under 0.2%. It also gave a Drug uptake [40] of under 0.2%, a Drug uptake [41] of 1.75% and a Drug uptake [42] of under 0.01%. It also gave a Drug uptake [43] of 0.44%.
